Data as given in US5476966A, “Method for depletion of glutathione” (Cornell Research Foundation, Inc., priority 1995, dated 1995).

How the values were obtained:
[1] = mice depleted of glutathione by buthionine sulfoximine; cited from earlier work
B16 melanomas = conditions: cited from earlier work
[2] = tested on: mouse L1210 leukemia cells; conditions: resistant cells treated with BSO; cited from earlier work
[3] = tested on: human ovarian cancer cells; conditions: cited from earlier work
resistant cells = conditions: glutathione depletion by BSO; cited from earlier work
glutathione [4] = test: Tissue glutathione after oral administration of sulfoximines (Table 4); assay type: in vivo, mouse; conditions: 2 mmol/Kg oral
Experimental: Male mice (Swiss Webster) were fasted overnight (about 16 hr.) L-buthionine-SR-sulfoximine (BSO, S-n-butyl homocysteine-SR-sulfoximine), L-S-cyclohexylmethyl homocysteine-SR-sulfoximine (CHMSO); L-S-2-ethylbutylhomocysteine-SR-sulfoximine (2 EtBSO, L-S-2-ethylbutyl homocysteine-SR-sulfoximine, or saline (0.9% NaCl) were administered to mice at 2 mmol/Kg by intubation (100 mM; pH about 1 with HCl (200 mM). At the times indicated, plasma and tissues were obtained and assayed for glutathione (GSH+1/2 GSSG) as described by Anderson, Methods in Enzymology, 1985, 113:548-555. (See Table 4 and 5.)

V79 cells = conditions: cited from earlier work
tumor cell lines = conditions: glucose oxidase, activated macrophages and granulocytes with phorbol myristate acetate; cited from earlier work
[5] = tested on: human ovarian tumor cells; conditions: grown in nude mice; cited from earlier work
[6] = Detection of compound in mouse bile; assay type: in vivo
[7] = tested on: human lymphoid cell lines; conditions: cited from earlier work
glutathione [8] = test: Tissue glutathione levels after intraperitoneal administration of sulfoximines; assay type: in vivo, mouse; conditions: 2 mmol/Kg i.p.
Experimental: Male mice (Swiss Webster) were fasted overnight (about 16 hr). L-3-methylbuthionine-SR-sulfoximine (3 mBSO; L-S-3-methylbutyl homocysteine-SR-sulfoximine; L-S-isopentyl homocysteine-SR-sulfoximine), L-buthionine-SR-sulfoximine(BSO; L-S-butyl homocysteine-SR-sulfoximine), L-2-methylbuthiomine-SR-sulfoximine (2 mBSO, L-S-2methylbutyl homocysteine-SR-sulfoximine), or saline (0.9% NaCl) were administered to mice at 2 mmol/Kg intraperitoneally (50 mM, Ph ^~ 7). At the times indicated, plasma and tissues were obtained and assayed for glutathione (GSH+1/2 GSSG) as described by Anderson, Methods in Enzymology, 1985, 113:548-555.

resistant tumors = conditions: continuous intraperitoneal infusion of BSO; cited from earlier work
[9] = molecular target: T1, γ-Glutamylcysteine Synthetase (Rattus norvegicus, UniProt P19468); test: Inhibition of γ-glutamylcysteine synthetase (preincubation assay); assay type: biochemical; conditions: 30 min preincubation, 22° C.; read-out: Kiapp; Concentration for 50% Inhibition
T1 construct: Rat kidney γ-Glutamylcysteine synthetase was purified from Sprague Dawley (Taconic Farms) rats; from tissue; host or cells: rat kidney (Sprague Dawley, Taconic Farms)
T1 sequence (P19468 1-637): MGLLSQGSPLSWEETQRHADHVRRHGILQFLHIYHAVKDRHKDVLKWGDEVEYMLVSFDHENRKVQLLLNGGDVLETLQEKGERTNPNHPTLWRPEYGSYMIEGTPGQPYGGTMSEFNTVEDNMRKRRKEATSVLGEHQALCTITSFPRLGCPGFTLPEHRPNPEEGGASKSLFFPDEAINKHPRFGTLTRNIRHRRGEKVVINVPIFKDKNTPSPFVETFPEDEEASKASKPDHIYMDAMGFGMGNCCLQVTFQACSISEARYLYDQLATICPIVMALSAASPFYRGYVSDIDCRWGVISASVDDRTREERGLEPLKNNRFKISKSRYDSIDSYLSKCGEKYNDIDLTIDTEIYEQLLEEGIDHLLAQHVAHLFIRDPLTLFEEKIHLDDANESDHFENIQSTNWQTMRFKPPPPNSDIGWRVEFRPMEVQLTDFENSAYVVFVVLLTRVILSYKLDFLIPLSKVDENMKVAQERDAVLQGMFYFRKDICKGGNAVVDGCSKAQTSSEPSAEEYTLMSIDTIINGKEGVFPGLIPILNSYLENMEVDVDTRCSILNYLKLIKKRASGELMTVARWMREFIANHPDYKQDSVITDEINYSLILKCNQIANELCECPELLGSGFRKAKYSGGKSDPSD
T1 sequence (P48508 1-274 partner): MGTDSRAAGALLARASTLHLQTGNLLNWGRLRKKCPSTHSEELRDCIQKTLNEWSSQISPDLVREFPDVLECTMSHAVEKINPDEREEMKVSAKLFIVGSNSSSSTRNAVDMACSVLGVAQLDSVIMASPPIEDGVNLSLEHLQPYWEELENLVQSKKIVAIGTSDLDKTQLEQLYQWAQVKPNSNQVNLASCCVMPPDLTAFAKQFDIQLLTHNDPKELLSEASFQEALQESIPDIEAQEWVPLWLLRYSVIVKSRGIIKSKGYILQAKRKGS
Experimental: Rat kidney γ-Glutamylcysteine synthetase was purified from Sprague Dawley (Taconic Farms) rats (Seelig., Methods in Enzymology, 1985, 113:379-390).
The preincubation assay of γ-glutamylcysteine synthetase is given below. γ-Glutamylcysteine synthetase (4.6 units) was added to a mixture (final volume, 50 μl) containing 100 mM Tris/HCl (pH 8.2), 5 mM ATP, 20 mM MgCl2, 0.2 mM EDTA, and the sulfoximine being evaluated. After incubation at 22° C. for 30 minutes, a 45 μl aliquot of the preincubation mixture was added to the assay as follows.
γ-Glutamylcysteine synthetase was assayed as follows (Griffith et al, J. Biological Chem., 1979, 254:1205-1210). The reaction mixture (final volume, 1.0 ml) contained 100 mM Tris/HCl (pH 8.2), 120 mM KCl, 5 mM phosphoenolpyruvate, 20 mM MgCl2, 10 mM sodium L-glutamate, 10 mM L-α-aminobutyric acid, 0.2 mM EDTA, 0.4 mM NADH, pyruvate kinase (10 IU), and lactate dehydrogenase (10 IU). The reaction (37° C.) was initiated by the addition of γ-glutamylcysteine synthetase and the oxidation of NADH, equivalent to ADP formation, was recorded at 340 nm.

CCCCS(=N)(=O)CCC(N)C(=O)O [BSO, L-S-butyl homocysteine-SR-sulfoximine]
decrease in LD50 value of acetaminophen [1]: about 80%
longevity (B16 melanomas; BSO plus irradiation): significant increase in longevity
tumor size (B16 melanomas; BSO plus irradiation): significant decrease in tumor size
tumor glutathione content relative to untreated controls (B16 melanomas; when irradiated, tumors in footpads of mice): about 20%
sensitivity of resistant cells to phenylalanine mustard [2]: resensitization of the tumor cells to phenylalanine mustard
reversal of resistance ([3]; glutathione depletion with BSO): Reversal of resistance can be achieved
sensitivity of resistant cells to the drugs and to radiation ([3]; glutathione depletion): significantly increases the sensitivity of the resistant cells
reversal of drug resistance (resistant cells): reversal of drug resistance
% Decrease in glutathione (glutathione [4]; brain, 2 hr): 24%
Glutathione level (glutathione [4]; brain, 2 hr): 1.86 µmol/g
% Decrease in glutathione (glutathione [4]; brain, 12 hr): 18%
Glutathione level (glutathione [4]; brain, 12 hr): 1.73 µmol/g
% Decrease in glutathione (glutathione [4]; kidney, 2 hr): 80%
Glutathione level (glutathione [4]; kidney, 2 hr): 0.69 µmol/g
% Decrease in glutathione (glutathione [4]; kidney, 12 hr): 87%
Glutathione level (glutathione [4]; kidney, 12 hr): 0.45 µmol/g
% Decrease in glutathione (glutathione [4]; liver, 2 hr): 75%
Glutathione level (glutathione [4]; liver, 2 hr): 1.23 µmol/g
% Decrease in glutathione (glutathione [4]; liver, 12 hr): 78%
Glutathione level (glutathione [4]; liver, 12 hr): 1.10 µmol/g
% Decrease in glutathione (glutathione [4]; plasma, 2 hr): 59%
Glutathione level (glutathione [4]; plasma, 2 hr): 9.7 µM
% Decrease in glutathione (glutathione [4]; plasma, 12 hr): 69%
Glutathione level (glutathione [4]; plasma, 12 hr): 7.2 µM
oxygen enhancement ratio (V79 cells): decrease of the oxygen enhancement ratio
sensitization to radiation (V79 cells; hypoxic conditions): sensitization to radiation under hypoxic conditions
degree of cytolysis (tumor cell lines): enhanced the degree of cytolysis
reversal of resistance [5]: reversal of resistance
detection in mouse bile [6]: no BSO was detected
disappeared intracellular glutathione found in the medium ([7]; CEM line, L-serine plus borate in medium): About 50%
cell viability on further decrease in glutathione level ([7]; below 0.09 mM glutathione): marked loss of viability
cell viability ([7]; cells with 0.09 mM glutathione (4% of controls)): 85%
cellular glutathione as percent of control levels ([7]; three human lymphoid cell lines, medium containing BSO, 50 hours): about 5%
% Decrease in glutathione (glutathione [8]; brain, 2 hr): 10%
Glutathione level (glutathione [8]; brain, 2 hr): 2.08 µmol/g
% Decrease in glutathione (glutathione [8]; brain, 12 hr): 17%
Glutathione level (glutathione [8]; brain, 12 hr): 1.93 µmol/g
% Decrease in glutathione (glutathione [8]; heart, 2 hr): 14%
Glutathione level (glutathione [8]; heart, 2 hr): 1.16 µmol/g
% Decrease in glutathione (glutathione [8]; heart, 12 hr): 57%
Glutathione level (glutathione [8]; heart, 12 hr): 0.56 µmol/g
% Decrease in glutathione (glutathione [8]; kidney, 2 hr): 82%
Glutathione level (glutathione [8]; kidney, 2 hr): 0.76 µmol/g
% Decrease in glutathione (glutathione [8]; kidney, 12 hr): 79%
Glutathione level (glutathione [8]; kidney, 12 hr): 0.75 µmol/g
% Decrease in glutathione (glutathione [8]; liver, 2 hr): 72%
Glutathione level (glutathione [8]; liver, 2 hr): 1.50 µmol/g
% Decrease in glutathione (glutathione [8]; liver, 12 hr): 32%
Glutathione level (glutathione [8]; liver, 12 hr): 3.37 µmol/g
% Decrease in glutathione (glutathione [8]; plasma, 2 hr): 66%
Glutathione level (glutathione [8]; plasma, 2 hr): 10.1 µM
% Decrease in glutathione (glutathione [8]; plasma, 12 hr): 43%
Glutathione level (glutathione [8]; plasma, 12 hr): 16.3 µM
life span (resistant tumors): increase in the life span
sensitization of tumors to phenylalanine mustard (resistant tumors): sensitization of the tumors to the effects of phenylalanine mustard was achieved
Ki [9]: 600 nM
